Assays:
[1] = system: leukemia cells K562; assay: MTT colorimetric experiment, cell growth inhibition; format: cell-based, human; details: leukemia cells K562, 0.1, 1, 10, 100, 200 and 250 μmol/L, MTT after 24 h
Protocol: (§1) MTT colorimetric experiments were performed after 24 h, respectively: prior to the finish of each experiment, 15 μl of MTT solution in a concentration of 5 mg/ml was added to each well, and the culture was continued in dark at 37° C. for 4 h, then 150 μl of DMSO was added to each well and oscillating in a shaker for 10 min, and then the residue was placed in a microplate reader to detect the optical density OD) at 490 nm, and the inhibition rate was calculated according to the following formula: cell growth inhibition rate (control group OD490—test group OD490)/control group OD490×100%.

[2] = system: phosphorylated ERK1/2 (P-ERK1/2); assay: Western Blotting of phosphorylated ERK1/2 in A875 cells; format: cell-based, human; details: melanoma A875 cells, 10 μmol/L, 24 hours
Protocol: (§2) The inhibition of the STAT3 and ERK signal pathways achieved by Mogroside I E1, Mogroside II A2 and mogrol was detected by Western Blotting, specifically:
(§3) Group 2: human melanoma A875 cells (1×10^6 cells/well) were inoculated into a 6-well culture plate for staying overnight, and 0 and 10 μmol/L of Mogroside I E1, Mogroside II A2 and mogrol were added respectively, and the culture was continued for 24 hours;
(§4) After the termination of the cell culture, the culture solution was removed, and the residue was washed with PBS (0.01 mol/L, pH 7.4), and then a cell lysis solution containing protease inhibitors was added at an amount of 50 μl/well, and the mixture was placed in an ice bath for lysis at 4° C. for 30 min and then centrifuged at 14000 r/min for 10 min, and then total proteins were obtained from the supernatant;
(§5) The protein concentrations were measured with bovine serum albumin (BSA) as the standard. 50 μg of the total proteins was separated by polyacrylamide gel electrophoresis with 12% […], electrophoretically transferred to a PVDF membrane (polyvinylidene fluoride membrane), and blocked for 1 h by 5% of skim milk (containing 0.1% of Tween 20), and then antibodies p-STAT3 (Tyr705) and p-Erk1/2 as well as β-actin were added, and the primary antibody was incubated at 4° C. overnight (β-actin was used as reference in loading amount); the membrane was washed for 3 times with TBS-T, 5 min each time; secondary antibody marked by horseradish peroxidase (HRP) was added for incubation at room temperature for 1 h, the membrane was washed for 3 times with a wash solution (TBS-T), 10 min each time, and then ECL was added for incubation in dark for 5 min, and subsequently, a fluorescence imaging analyzer was used for image development and scanning analysis, and the results of Western Blotting detection are shown in FIGS. 4 to 6.

[3] = system: lymphoma U937 cells; assay: MTT colorimetric experiment, cell growth inhibition; format: cell-based; details: U937 cells, 0.1, 1, 10, 100, 200 and 250 μmol/L, MTT after 24 h
Protocol: as §1

[4] = system: human melanoma A875 cells; assay: as above; format: cell-based; details: melanoma A875 cells, 0.1, 1, 10, 100, 200 and 250 μmol/L, MTT after 24 h
Protocol: as §1

[5] = system: phosphorylated STAT3 (P-STAT3, Tyr705); assay: Western Blotting of phosphorylated STAT3 in A875 cells; format: cell-based, human; details: melanoma A875 cells, 10 μmol/L, 24 hours
Protocol: as §2, §3, §4, §5

[6] = system: phosphorylated ERK1/2 (P-ERK1/2); assay: Western Blotting of phosphorylated ERK1/2 in U937 cells; format: cell-based; details: 10 μmol/L, 24 hours
Protocol: as §2
(§6) Group 1: histiocytic lymphoma U937 cells (1×10^6 cells/well) were inoculated into a 6-well culture plate for staying overnight, and 0 and 10 μmol/L of Mogroside I E1, Mogroside II A2 and mogrol were added respectively, and the culture was continued for 24 hours;
as §4, §5

[7] = system: phosphorylated STAT3 (P-STAT3, Tyr705); assay: Western Blotting of phosphorylated STAT3 in U937 cells; format: cell-based; details: 10 μmol/L, 24 hours
Protocol: as §2, §6, §4, §5

[8] = system: phosphorylated ERK1/2 (P-ERK1/2); assay: Western Blotting of phosphorylated ERK1/2 in K562 cells; format: cell-based, human; details: leukemia cells K562, 10 μmol/L, 24 hours
Protocol: as §2
(§7) Group 3: leukemia cells K562 (1×10^6 cells/well) were inoculated into a 6-well culture plate for staying overnight, and 0 and 10 μmol/L of Mogroside I E1 Mogroside II A2 and mogrol were added respectively, and the culture was continued for 24 hours;
as §4, §5

[9] = system: phosphorylated STAT3 (P-STAT3, Tyr705); assay: Western Blotting of phosphorylated STAT3 in K562 cells; format: cell-based, human; details: leukemia cells K562, 10 μmol/L, 24 hours
Protocol: as §2, §7, §4, §5

SMILES: C[C@H](CC[C@@H](O)C(C)(C)O)[C@H]1CC[C@@]2(C)[C@@H]3CC=C4[C@@H](CC[C@H](O[C@@H]5O[C@H](CO)[C@@H](O)[C@H](O)[C@H]5O)C4(C)C)[C@]3(C)[C@H](O)C[C@]12C [Mogroside I E1]
- cell growth inhibition rate [1]: inhibitory effect on the proliferation
- expression level of phosphorylated ERK1/2 (P-ERK1/2) [2]: significantly decreased
- cell growth inhibition rate [3]: inhibitory effect on the proliferation
- cell growth inhibition rate [4]: inhibitory effect on the proliferation
- expression level of phosphorylated STAT3 (P-STAT3) [5]: significantly decreased
- expression level of phosphorylated ERK1/2 (P-ERK1/2) [6]: significantly decreased
- expression level of phosphorylated STAT3 (P-STAT3) [7]: significantly decreased
- expression level of phosphorylated ERK1/2 (P-ERK1/2) [8]: significantly decreased
- expression level of phosphorylated STAT3 (P-STAT3) [9]: significantly decreased

SMILES: C[C@H](CC[C@@H](O)C(C)(C)O)[C@H]1CC[C@@]2(C)[C@@H]3CC=C4[C@@H](CC[C@H](O[C@@H]5O[C@H](CO[C@@H]6O[C@H](CO)[C@@H](O)[C@H](O)[C@H]6O)[C@@H](O)[C@H](O)[C@H]5O)C4(C)C)[C@]3(C)[C@H](O)C[C@]12C [Mogroside II A2]
- cell growth inhibition rate [1]: inhibitory effect on the proliferation
- expression level of phosphorylated ERK1/2 (P-ERK1/2) [2]: significantly decreased
- cell growth inhibition rate [3]: inhibitory effect on the proliferation
- cell growth inhibition rate [4]: inhibitory effect on the proliferation
- expression level of phosphorylated STAT3 (P-STAT3) [5]: significantly decreased
- expression level of phosphorylated ERK1/2 (P-ERK1/2) [6]: significantly decreased
- expression level of phosphorylated STAT3 (P-STAT3) [7]: significantly decreased
- expression level of phosphorylated ERK1/2 (P-ERK1/2) [8]: significantly decreased
- expression level of phosphorylated STAT3 (P-STAT3) [9]: significantly decreased

Source: patent publication US10617734B2, “STAT3 and ERK signal pathway inhibitor comprising mogrosides and analogs thereof” (BEIJING UNIVERSITY OF AGRICULTURE, priority 2014, dated 2020)
